Laboratory results as given in patent US9096608B2, “Pharmaceutically active pyrazolo-triazine derivatives” (LEAD DISCOVERY CENTER GMBH, priority 2012, dated 2015).
Read-outs that look alike come from different tables or passages of the source.

Key:
Type in all cases: biochemical
CDK2/CycA = biological target: T1, CDK2/CycA (Homo sapiens, UniProt P24941); assay: CDK2 Enzymatic Activity Assay (Lance Kinase Activity Assay, FRET); details: for CDK2 IC50 range class: Table 5B, symbols per IC50 ranges of b615
T1 construct: purchased Proqinase
Procedure: (§1) This protocol describes how the Lance Kinase Activity Assay was performed to determine IC50 values of compounds of general formula (I) against CDK/Cyclin complexes. The principle behind this enzymatic assay is based upon the phosphorylation of the Ulight-Peptide Substrat. It is detected by using a specific EU-labeled anti-phospho peptide antibody.
(§2) Binding of an inhibitor to the kinase prevents phosphorylation of the ULlight-MBP Substrat, resulting in a loss of FRET.
CDK2 Enzymatic Activity Assay
(§3) The compounds of general formula (I) exemplary summarized in Table 1 were diluted from a 10 mM DMSO stock solution 1:10 in a total volume of 15 μl DMSO. This compound predilution was then serial diluted 1:3 over 8 steps in DMSO and briefly spun down. Each compound solution was now diluted 1:20 in Enzymatic Buffer (HEPES: 50 mM, pH: 7.5; MgCl2: 10 mM; EGTA: 1 mM; DTT: 2 mM; Tween-20: 0.01%), mixed thoroughly and spun down.
(§4) For positive controls, 2 μl of DMSO working solution were mixed with 6 μl CDK2/CycA/substrate working solution and 2 μl ATP working solution. Positive and negative controls were calculated from at least 8 different wells. The 384 well plates were mixed in a Teleshaker plate mixer (Beckman Coulter, Brea, Calif., USA) at 2000 rpm for 40 sec, and incubated for 1 h at room temperature before addition of 10 μl LANCE Detection Buffer (EDTA: 20 nM; Eu-Anti-P-MBP: 4 nM) per well. Plates were mixed in a Teleshaker plate mixer (Beckman Coulter, Brea, Calif., USA) at 2000 rpm for sec, followed by incubation with Detection Buffer for 1 h, and reading. […] IC50 values were determined from the sigmoidal dose response curves with the software Quattro Workflow (Quattro GmbH, Munich, Germany).

CDK7/CycH/Mat1 = biological target: T2, CDK7/CycH/Mat1 (Homo sapiens, UniProt P50613); assay: CDK7 Enzymatic Activity Assay (Lance Kinase Activity Assay, FRET)
T2 construct: purchased Carna
Procedure: as §1, §2
CDK7 Enzymatic Activity Assay
as §3
as §4, with “6 μl CDK7/CycH/Mat1/substrate working solution” for “6 μl CDK2/CycA/substrate working solution”, “Detection Buffer (1×; EDTA: […];” for “Detection Buffer (EDTA: 20 nM;”, “rpm for 40 sec, followed” for “rpm for sec, followed”

CDK9/Cyclin T1 = biological target: T3, CDK9/Cyclin T1 (Homo sapiens, UniProt P50750); assay: CDK9 Enzymatic Activity Assay (Lance Kinase Activity Assay, FRET); details: for CDK9: Selectivity of CDK7 inhibition over CDK9 inhibition [fold]: Table 5B, symbols per IC50 ranges of b615
T3 construct: purchased Invitrogen
Procedure: as §1, §2
CDK9 Enzymatic Activity Assay
as §3
as §4, with “CDK9/cyclin T1/substrate” for “CDK2/CycA/substrate”, “(1×; EDTA:” for “(EDTA:”

[1] = Table 5A, 25 μM ATP final, read-out: CDK7: IC50 [mM] for CDK7 inhibition (the above defined ranges apply)

T3 sequence (P50750 whole entry): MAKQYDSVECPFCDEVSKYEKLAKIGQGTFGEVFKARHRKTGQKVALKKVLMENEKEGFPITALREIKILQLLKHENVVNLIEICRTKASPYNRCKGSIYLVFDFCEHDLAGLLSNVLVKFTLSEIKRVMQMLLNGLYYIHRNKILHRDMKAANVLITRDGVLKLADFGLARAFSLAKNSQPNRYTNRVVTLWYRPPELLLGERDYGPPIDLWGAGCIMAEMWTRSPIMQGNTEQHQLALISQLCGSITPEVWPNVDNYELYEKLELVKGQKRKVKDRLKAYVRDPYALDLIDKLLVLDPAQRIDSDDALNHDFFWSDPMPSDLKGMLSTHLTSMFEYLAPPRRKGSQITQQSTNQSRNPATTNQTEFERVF
T3 sequence (O60563 whole entry partner): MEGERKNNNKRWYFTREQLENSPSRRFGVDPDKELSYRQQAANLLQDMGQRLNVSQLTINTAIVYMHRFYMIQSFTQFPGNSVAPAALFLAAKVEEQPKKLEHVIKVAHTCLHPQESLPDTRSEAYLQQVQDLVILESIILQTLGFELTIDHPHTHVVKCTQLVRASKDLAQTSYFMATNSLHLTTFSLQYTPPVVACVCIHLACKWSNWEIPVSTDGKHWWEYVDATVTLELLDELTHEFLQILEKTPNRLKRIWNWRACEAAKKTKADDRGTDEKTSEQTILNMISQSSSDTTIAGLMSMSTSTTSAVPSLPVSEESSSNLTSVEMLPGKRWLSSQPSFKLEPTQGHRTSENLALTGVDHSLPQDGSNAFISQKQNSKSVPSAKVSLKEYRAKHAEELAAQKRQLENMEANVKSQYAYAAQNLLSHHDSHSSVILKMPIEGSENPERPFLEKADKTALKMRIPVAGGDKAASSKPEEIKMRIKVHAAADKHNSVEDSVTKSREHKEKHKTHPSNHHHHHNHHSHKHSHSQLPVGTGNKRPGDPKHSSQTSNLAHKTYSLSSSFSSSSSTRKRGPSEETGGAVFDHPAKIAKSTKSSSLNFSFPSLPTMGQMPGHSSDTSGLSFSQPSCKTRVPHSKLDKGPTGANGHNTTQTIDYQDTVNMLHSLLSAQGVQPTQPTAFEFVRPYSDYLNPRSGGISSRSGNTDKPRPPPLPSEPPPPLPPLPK
T2 sequence (P50613 whole entry): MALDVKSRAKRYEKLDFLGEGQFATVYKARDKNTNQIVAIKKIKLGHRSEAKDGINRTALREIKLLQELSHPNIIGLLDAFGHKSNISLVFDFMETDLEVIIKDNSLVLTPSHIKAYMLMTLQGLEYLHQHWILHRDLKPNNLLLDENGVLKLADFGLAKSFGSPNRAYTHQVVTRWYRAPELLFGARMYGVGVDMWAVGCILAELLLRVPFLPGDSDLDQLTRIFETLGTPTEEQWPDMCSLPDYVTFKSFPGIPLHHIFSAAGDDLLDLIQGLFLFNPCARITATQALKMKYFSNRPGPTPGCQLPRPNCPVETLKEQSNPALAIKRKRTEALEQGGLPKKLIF
T2 sequence (P51946 whole entry partner): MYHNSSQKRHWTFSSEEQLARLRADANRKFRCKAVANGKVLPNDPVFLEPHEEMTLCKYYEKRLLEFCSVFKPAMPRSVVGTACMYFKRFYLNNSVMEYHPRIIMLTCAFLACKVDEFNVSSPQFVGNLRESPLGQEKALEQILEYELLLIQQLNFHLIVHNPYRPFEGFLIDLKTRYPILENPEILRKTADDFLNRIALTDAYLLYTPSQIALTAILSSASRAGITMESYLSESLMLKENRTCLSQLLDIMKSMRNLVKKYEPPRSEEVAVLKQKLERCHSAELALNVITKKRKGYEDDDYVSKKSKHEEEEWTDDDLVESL
T2 sequence (P51948 whole entry partner): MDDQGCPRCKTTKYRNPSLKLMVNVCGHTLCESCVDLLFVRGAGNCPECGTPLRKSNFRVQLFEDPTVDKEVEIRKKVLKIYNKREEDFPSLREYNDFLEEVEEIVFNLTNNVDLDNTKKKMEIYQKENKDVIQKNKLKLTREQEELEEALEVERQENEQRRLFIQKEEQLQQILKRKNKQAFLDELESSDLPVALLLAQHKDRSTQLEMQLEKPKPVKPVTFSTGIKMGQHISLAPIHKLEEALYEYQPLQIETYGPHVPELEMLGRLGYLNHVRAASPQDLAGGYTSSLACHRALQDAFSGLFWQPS

SMILES | CDK2 IC50 range class (CDK2/CycA) | IC50 (CDK7/CycH/Mat1; [1]) [nM] | CDK9: Selectivity of CDK7 inhibition over CDK9 inhibition [fold] (CDK9/Cyclin T1) | further results
CC(C)c1cnn2c(N[C@@H](C)c3ccccc3I)nc(O[C@@H]3CCCNC3)nc12 [(VII-au), N-((S)-1-(2-iodophenyl)ethyl)-8-isopropyl-2-((R)-piperidin-3-yloxy)pyrazolo[1,5-a][1,3,5]triazin-4-amine] | +++ (IC50>2500 nM) | 10 to 30 | +++ (IC50>2500 nM) | 
COc1cccc([C@H](C)Nc2nc(N3CC4(CCNC4)C3)nc3c(C(C)C)cnn23)c1 [(VIII-ae), (S)-8-isopropyl-N-(1-(3-methoxyphenyl)ethyl)-2-(2,6-diazaspiro[3.4]octan-2-yl)pyrazolo[1,5-a][1,3,5]triazin-4-amine] | +++ (IC50>2500 nM) | < 10 | +++ (IC50>2500 nM) | 
COc1cccc([C@H](C)Nc2nc(OCCN(C)S(=O)(=O)C3CCNCC3)nc3c(C(C)C)cnn23)c1 [(VII-bw), (S)-N-(2-((8-isopropyl-4-((1-(3-methoxyphenyl)ethyl)amino)pyrazolo[1,5-a][1,3,5]triazin-2-yl)oxy)ethyl)-N-methylpiperidine-4-sulfonamide] | +++ (IC50>2500 nM) | < 10 | +++ (IC50>2500 nM) | 
COCCN1CCN(Cc2nc(N[C@@H](C)c3cccc(OC)c3)n3ncc(C(C)C)c3n2)CC1 [(XXIX-11), (S)-8-isopropyl-2-((4-(2-methoxyethyl)piperazin-1-yl)methyl)-N-(1-(3-methoxyphenyl)ethyl)pyrazolo[1,5-a][1,3,5]triazin-4-amine] | +++ (IC50>2500 nM) | > 100 | +++ (IC50>2500 nM) | 
COc1cccc([C@H](C)Nc2nc(N3CCC34CCNCC4)nc3c(C(C)C)cnn23)c1 [(VIII-al), (S)-8-isopropyl-N-(1-(3-methoxyphenyl)ethyl)-2-(1,7-diazaspiro[3.5]nonan-1-yl)pyrazolo[1,5-a][1,3,5]triazin-4-amine] | +++ (IC50>2500 nM) | < 10 | +++ (IC50>2500 nM) | 
COc1cccc([C@H](C)Nc2nc(CNC3CCNC3)nc3c(C(C)C)cnn23)c1 (stereo partly drawn) [(XXIX-4), 8-isopropyl-N-((S)-1-(3-methoxyphenyl)ethyl)-2-((pyrrolidin-3-ylamino)methyl)pyrazolo[1,5-a][1,3,5]triazin-4-amine] | +++ (IC50>2500 nM) | 30 to 100 | +++ (IC50>2500 nM) | 
CC(C)c1cnn2c(N[C@H](C)c3cccc(Cl)c3)nc(OC3CCN(C)CC3)nc12 [(VII-ad), (R)-N-(1-(3-chlorophenyl)ethyl)-8-isopropyl-2-((1-methylpiperidin-4-yl)oxy)pyrazolo[1,5-a][1,3,5]triazin-4-amine] |  | < 10 | +++ (IC50>2500 nM) | Selectivity CDK7 over CDK2 [fold] (CDK2/CycA; Table 7, lower part): 968 fold; IC50 (CDK2/CycA; Table 7, upper part): > 2500 nM; IC50 (CDK7/CycH/Mat1; Table 7, lower part, read-out: IC50 [nM] CDK7): < 10 nM; IC50 (CDK7/CycH/Mat1; Table 7, upper part, read-out: IC50 [nM] CDK7): < 10 nM; Selectivity CDK7 over CDK9 [fold] (CDK9/Cyclin T1; Table 7, lower part): 815 fold; IC50 (CDK9/Cyclin T1; Table 7, upper part): > 2500 nM
COc1cccc([C@H](C)Nc2nc(CNCCN)nc3c(C(C)C)cnn23)c1 [(XXIX-2), (S)-N1-((8-isopropyl-4-((1-(3-methoxyphenyl)ethyl)amino)pyrazolo[1,5-a][1,3,5]triazin-2-yl)methyl)ethane-1.2-diamine] | +++ (IC50>2500 nM) | > 100 | +++ (IC50>2500 nM) | 
COc1cccc([C@H](C)Nc2nc(NCCOCCN)nc3c(C(C)C)cnn23)c1 [(VIII-u), (S)-N2-(2-(2-aminoethoxy)ethyl)-8-isopropyl-N4-(1-(3-methoxyphenyl)ethyl)pyrazolo[1,5-a][1,3,5]triazine-2,4-diamine] | +++ (IC50>2500 nM) | 30 to 100 | +++ (IC50>2500 nM) | 
COc1cccc([C@H](C)Nc2nc(N(C)CCN3CCOCC3)nc3c(C(C)C)cnn23)c1 [(VIII-s), (S)-8-isopropyl-N4-(1-(3-methoxyphenyl)ethyl)-N2-methyl-N2-(2-morpholinoethyl)pyrazolo[1,5-a][1,3,5]triazine-2,4-diamine] | +++ (IC50>2500 nM) | > 100 | +++ (IC50>2500 nM) | 
CC(C)c1cnn2c(N[C@@H](C)c3ccc(Cl)cc3)nc(O[C@@H]3CCCNC3)nc12 [(VII-al), N-((S)-1-(4-chlorophenyl)ethyl)-8-isopropyl-2-((R)-piperidin-3-yloxy)pyrazolo[1,5-a][1,3,5]triazin-4-amine] | +++ (IC50>2500 nM) | > 100 | +++ (IC50>2500 nM) | 
COc1cccc([C@H](C)Nc2nc(NCCN3CCCC3)nc3c(C(C)C)cnn23)c1 [(VIII-l), (S)-8-isopropyl-N4-(1-(3-methoxyphenyl)ethyl)-N2-(2-(pyrrolidin-1-yl)ethyl)pyrazolo[1,5-a][1,3,5]triazine-2,4-diamine] | +++ (IC50>2500 nM) | > 100 | +++ (IC50>2500 nM) | 
COc1cccc([C@H](C)Nc2nc(N3CCC34CCCNC4)nc3c(C(C)C)cnn23)c1 (stereo partly drawn) [(VIII-ag), 8-isopropyl-N-((S)-1-(3-methoxyphenyl)ethyl)-2-(1,6-diazaspiro[3.5]nonan-1-yl)pyrazolo[1,5-a][1,3,5]triazin-4-amine] | +++ (IC50>2500 nM) | 10 to 30 | +++ (IC50>2500 nM) | 
CC(C)c1cnn2c(N[C@H](c3ccccc3)C3CC3)nc(O[C@@H]3CCCNC3)nc12 [(VII-s), N-((S)-cyclopropyl(phenyl)methyl)-8-isopropyl-2-((R)-piperidin-3-yloxy)pyrazolo[1,5-a][1,3,5]triazin-4-amine] | +++ (IC50>2500 nM) | 10 to 30 |  | 
CC(C)c1cnn2c(N[C@@H](C)c3ccccc3)nc(NC3CCNCC3)nc12 [(VIII-d), (S)-8-isopropyl-N4-(1-phenylethyl)-N2-(piperidin-4-yl)pyrazolo[1,5-a][1,3,5]triazine-2,4-diamine] | +++ (IC50>2500 nM) | 10 to 30 |  | 
CC(C)c1cnn2c(NC(C)c3ccccc3-n3cccn3)nc(O[C@@H]3CCCNC3)nc12 (stereo partly drawn) [(VII-V), N-(1-(2-(1H-pyrazol-1-yl)phenyl)ethyl)-8-isopropyl-2-((R)-piperidin-3-yloxy)pyrazolo[1,5-a][1,3,5]triazin-4-amine] |  | < 10 | +++ (IC50>2500 nM) | 
CC(C)c1cnn2c(N[C@@H](C)c3ccc(Cl)cc3)nc(OC3CCN(C)CC3)nc12 [(VII-y), (S)-N-(1-(4-chlorophenyl)ethyl)-8-isopropyl-2-((1-methylpiperidin-4-yl)oxy)pyrazolo[1,5-a][1,3,5]triazin-4-amine] |  | > 100 | +++ (IC50>2500 nM) | 
CC(C)c1cnn2c(N[C@@H](C)c3ccccc3)nc(OC3CCNC3)nc12 (stereo partly drawn) [(VII-e), 8-isopropyl-N-((S)-1-phenylethyl)-2-(pyrrolidin-3-yloxy)pyrazolo[1,5-a][1,3,5]triazin-4-amine] |  | < 10 | +++ (IC50>2500 nM) | 
